Test results from US7704995B2 (Exelixis, Inc., priority 2003, dated 2010).
pIC50: −log10 of the molar value.

Molecular target: T1, Chk1 (Homo sapiens, UniProt O14757)
T1 construct: purchased Upstate Biotechnology
T1 sequence (O14757 1-476): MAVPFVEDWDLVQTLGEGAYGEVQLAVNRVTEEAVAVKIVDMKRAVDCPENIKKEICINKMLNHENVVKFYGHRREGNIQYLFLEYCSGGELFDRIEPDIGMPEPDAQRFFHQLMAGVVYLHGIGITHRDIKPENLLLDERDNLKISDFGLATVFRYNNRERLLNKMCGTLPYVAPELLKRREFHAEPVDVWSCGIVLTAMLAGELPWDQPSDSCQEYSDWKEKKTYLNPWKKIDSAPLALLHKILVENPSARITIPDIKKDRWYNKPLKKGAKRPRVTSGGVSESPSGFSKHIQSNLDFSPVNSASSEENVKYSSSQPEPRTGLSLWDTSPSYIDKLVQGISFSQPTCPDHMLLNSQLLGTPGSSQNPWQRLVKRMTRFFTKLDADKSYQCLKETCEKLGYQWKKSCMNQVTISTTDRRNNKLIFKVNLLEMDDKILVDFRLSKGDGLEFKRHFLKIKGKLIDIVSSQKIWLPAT
Assay: Chk1 kinase assay: incorporation of γ-33P ATP into immobilized myelin basic protein
Type: biochemical
Details: Table 11; Chk1 only; read-out: Chk1 IC50
Outline: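 Enzyme activity is measured as γ-33P transfer from ATP onto immobilized MBP over 1 h at room temperature, with Chk1 at 10 nM/10 μM unlabeled ATP and Chk2 at 20 nM/30 μM unlabeled ATP. Compounds are tested in 1% DMSO.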

SMILES	pIC50
CNC(=O)c1nc(-c2cccc(CNC3CCc4cc(-n5cncn5)ccc43)c2)cnc1N (stereo not drawn) [Example 512, 3-amino-N-methyl-6-[3-({[5-(1H-1,2,4-triazol-1-yl)-2,3-dihydro-1H-inden-1-yl]amino}methyl)phenyl]pyrazine-2-carboxamide]	6.00 to 7.30
CNC(=O)c1nc(-c2cccc(CNC3CCc4cc(O)ccc43)c2)cnc1N (stereo not drawn) [Example 513, 3-amino-6-(3-{[(5-hydroxy-2,3-dihydro-1H-inden-1-yl)amino]methyl}phenyl)-N-methylpyrazine-2-carboxamide]	6.00 to 7.30
CNC(=O)c1nc(-c2cccc(CNC3CCc4c(OCCN5CCOCC5)cccc43)c2)cnc1N (stereo not drawn) [Example 514, 3-amino-N-methyl-6-{3-[({4-[(2-morpholin-4-ylethyl)oxy]-2,3-dihydro-1H-inden-1-yl}amino)methyl]phenyl}pyrazine-2-carboxamide]	6.00 to 7.30
CNC(=O)c1nc(-c2cccc(CNC3CCc4c(O)cccc43)c2)cnc1N (stereo not drawn) [Example 515, 3-amino-6-(3-{[(4-hydroxy-2,3-dihydro-1H-inden-1-yl)amino]methyl}phenyl)-N-methylpyrazine-2-carboxamide]	> 7.30
CNC(=O)c1nc(-c2ccc3ccnc(NCc4ccccc4)c3c2)cnc1N [Example 516, 3-amino-N-methyl-6-{1-[(phenylmethyl)amino]isoquinolin-7-yl}pyrazine-2-carboxamide]	5.00 to 6.00
CNC(=O)c1nc(-c2cccc(CNC(CN3CCOCC3)c3ccccc3)c2)cnc1N (stereo not drawn) [Example 517, 3-amino-N-methyl-6-(3-{[(2-morpholin-4-yl-1-phenylethyl)amino]methyl}phenyl)pyrazine-2-carboxamide]	5.00 to 6.00
CNC(=O)c1nc(-c2cccc(CNC(CN3CCCC3)c3ccccc3)c2)cnc1N (stereo not drawn) [Example 518, 3-amino-N-methyl-6-(3-{[(1-phenyl-2-pyrrolidin-1-ylethyl)amino]methyl}phenyl)pyrazine-2-carboxamide]	6.00 to 7.30
CNC(=O)c1cc(-c2cccc(CNC3CCc4ccc(Br)cc43)c2)cnc1N (stereo not drawn) [Example 519, 2-amino-5-(3-{[(6-bromo-2,3-dihydro-1H-inden-1-yl)amino]methyl}phenyl)-N-methylpyridine-3-carboxamide]	6.00 to 7.30
CNC(=O)c1cc(-c2cccc(CNC3CCc4c(F)cc(F)cc43)c2)cnc1N (stereo not drawn) [Example 520, 2-amino-5-(3-{[(4,6-difluoro-2,3-dihydro-1H-inden-1-yl)amino]methyl}phenyl)-N-methylpyridine-3-carboxamide]	6.00 to 7.30
CNC(=O)c1cc(-c2cccc(CNC3CCc4c(F)ccc(Br)c43)c2)cnc1N (stereo not drawn) [Example 521, 2-amino-5-(3-{[(7-bromo-4-fluoro-2,3-dihydro-1H-inden-1-yl)amino]methyl}phenyl)-N-methylpyridine-3-carboxamide]	5.00 to 6.00
CNC(=O)c1cc(-c2cccc(CNC3CCc4c(Cl)cccc43)c2)cnc1N (stereo not drawn) [Example 522, 2-amino-5-(3-{[(4-chloro-2,3-dihydro-1H-inden-1-yl)amino]methyl}phenyl)-N-methylpyridine-3-carboxamide]	6.00 to 7.30
CNC(=O)c1cc(-c2cccc(CNC3CCc4cc(F)c(F)cc43)c2)cnc1N (stereo not drawn) [Example 523, 2-amino-5-(3-{[(5,6-difluoro-2,3-dihydro-1H-inden-1-yl)amino]methyl}phenyl)-N-methylpyridine-3-carboxamide]	6.00 to 7.30
CNC(=O)c1cc(-c2cccc(CNC3CCc4cc(F)cc(F)c43)c2)cnc1N (stereo not drawn) [Example 524, 2-amino-5-(3-{[(5,7-difluoro-2,3-dihydro-1H-inden-1-yl)amino]methyl}phenyl)-N-methylpyridine-3-carboxamide]	6.00 to 7.30
CNC(=O)c1nc(-c2ccc3ccnc(N[C@H]4CCc5ccccc54)c3c2)cnc1N [Example 525, 3-amino-6-{1-[(1S)-2,3-dihydro-1H-inden-1-ylamino]isoquinolin-7-yl}-N-methylpyrazine-2-carboxamide]	6.00 to 7.30
CNC(=O)c1nc(-c2ccc3c(c2)C(N[C@H]2CCc4ccccc42)CC3)cnc1N (stereo partly drawn) [Example 526, 3-amino-6-{3-[(1S)-2,3-dihydro-1H-inden-1-ylamino]-2,3-dihydro-1H-inden-5-yl}-N-methylpyrazine-2-carboxamide]	> 7.30
CNC(=O)c1nc(-c2cccc(CNC3CCc4cc(CCCO)ccc43)c2)cnc1N (stereo not drawn) [Example 527]	> 7.30
Nc1ncc(-c2cccc(CN[C@H]3CCc4ccccc43)c2)nc1-c1cnco1 [Example 528, 5-(3-{[(1S)-2,3-dihydro-1H-inden-1-ylamino]methyl}phenyl)-3-(1,3-oxazol-5-yl)pyrazin-2-amine]	5.00 to 6.00
NNC(=O)c1nc(-c2cccc(CN[C@H]3CCc4ccccc43)c2)cnc1N [Example 529, 3-amino-6-(3-{[(1S)-2,3-dihydro-1H-inden-1-ylamino]methyl}phenyl)pyrazine-2-carbohydrazide]	6.00 to 7.30
NC(=O)c1nc(-c2cccc(CN[C@H]3CCc4ccccc43)c2)cnc1N [Example 530, 3-amino-6-(3-{[(1S)-2,3-dihydro-1H-inden-1-ylamino]methyl}phenyl)pyrazine-2-carboxamide]	6.00 to 7.30
CC(=O)c1nc(-c2cccc(CN[C@H]3CCc4ccccc43)c2)cnc1N [Example 531, 1-[3-amino-6-(3-{[(1S)-2,3-dihydro-1H-inden-1-ylamino]methyl}phenyl)pyrazin-2-yl]ethanone]	6.00 to 7.30
Nc1ncc(-c2cccc(CNC3CCc4ccccc43)c2)nc1C(=O)NCc1ccc2ccccc2c1 (stereo not drawn) [Example 532, 3-amino-6-{3-[(2,3-dihydro-1H-inden-1-ylamino)methyl]phenyl}-N-(naphthalen-2-ylmethyl)pyrazine-2-carboxamide]	≤ 5.00
Nc1ncc(-c2cccc(CNC3CCc4ccccc43)c2)nc1C(=O)NC1CCCCC1 (stereo not drawn) [Example 533, 3-amino-N-cyclohexyl-6-{3-[(2,3-dihydro-1H-inden-1-ylamino)methyl]phenyl}pyrazine-2-carboxamide]	5.00 to 6.00
Nc1ncc(-c2cccc(CN[C@H]3CCc4ccccc43)c2)nc1C(=O)NCc1ccncc1 [Example 534, 3-amino-6-(3-{[(1S)-2,3-dihydro-1H-inden-1-ylamino]methyl}phenyl)-N-(pyridin-4-ylmethyl)pyrazine-2-carboxamide]	5.00 to 6.00
Nc1ncc(-c2cccc(CO)c2)nc1-c1nnc[nH]1 [Example 535, {3-[5-amino-6-(4H-1,2,4-triazol-3-yl)pyrazin-2-yl]phenyl}methanol]	5.00 to 6.00
Nc1ncc(-c2cccc(CN[C@H]3CCc4ccccc43)c2)nc1-c1nnc[nH]1 [Example 536, 5-(3-{[(1S)-2,3-dihydro-1H-inden-1-ylamino]methyl}phenyl)-3-(4H-1,2,4-triazol-3-yl)pyrazin-2-amine]	6.00 to 7.30
Nc1ncc(-c2cccc(CN[C@H]3CCc4ccccc43)c2)nc1C(=O)NCC(F)(F)F [Example 537, 3-amino-6-(3-{[(1S)-2,3-dihydro-1H-inden-1-ylamino]methyl}phenyl)-N-(2,2,2-trifluoroethyl)pyrazine-2-carboxamide]	5.00 to 6.00
Nc1ncc(-c2cccc(CN[C@H]3CCc4ccccc43)c2)nc1C(=O)NCCCCCO [Example 538, 3-amino-6-(3-{[(1S)-2,3-dihydro-1H-inden-1-ylamino]methyl}phenyl)-N-(5-hydroxypentyl)pyrazine-2-carboxamide]	5.00 to 6.00
